# Literature values as cited in PubChem BioAssay AID1259409 (Chemical Carcinogenesis Research Information System (CCRIS), 2018).
# Values joined by “and” are separate entries in the source; they are usually repeats but may differ in a detail not shown here. Equal values may be shown once.
# Test system: rodent chemically induced tumor inhibition, incidence and multiplicity
# Experiment: CCRIS tumor inhibitor studies
# Conditions: Route [Inhibitor]: ORAL
structure (smiles),measurement,setting,value
NC(=O)c1cccnc1,"tumour outcome (control, treated, inhibition, significance)","Carcinogen: 3'-METHYL-4-DIMETHYLAMINOAZOBENZENE, 55-80-1, Dose [Inhibitor]: 0.29% IN DIET DAILY FOR 4 WK STARTING 4 WK AFTER THE START OF CARCINOGEN TREATMENT (STUDY DURATION: 20 WK), Species: RAT, Target Tissue: Type of Lesion: LIVER: TUMOR, Dose [Carcinogen]: 0.064% IN DIET DAILY FOR 4 WK THEN A 4 WK CARCINOGEN-FREE PERIOD FOLLOWED BY 0.048% FOR AN ADDITIONAL 4 WK, Promoter: NONE USED","4/10 (40%), 10/11 (91%), -128%, not calculated"
same,"tumour outcome (control, treated, inhibition, significance)","Carcinogen: 3'-METHYL-4-DIMETHYLAMINOAZOBENZENE, 55-80-1, Dose [Inhibitor]: 0.29% IN DIET DAILY FOR 4 WK STARTING AFTER COMPLETION OF CARCINOGEN TREATMENT (STUDY DURATION: 20 WK), Species: RAT, Target Tissue: Type of Lesion: LIVER: TUMOR, Dose [Carcinogen]: 0.064% IN DIET DAILY FOR 4 WK, Promoter: NONE USED","7/15 (47%), 0/17 (0%), 100%, not calculated"
same,"tumour outcome (control, treated, inhibition, significance)","Carcinogen: 3'-METHYL-4-DIMETHYLAMINOAZOBENZENE, 55-80-1, Dose [Inhibitor]: 0.29% IN DIET DAILY FOR 4 WK STARTING AFTER COMPLETION OF THE FIRST 4 WK OF CARCINOGEN TREATMENT (STUDY DURATION: 20 WK), Species: RAT, Target Tissue: Type of Lesion: LIVER: TUMOR, Dose [Carcinogen]: 0.064% IN DIET DAILY FOR 4 WK BEFORE AND ANOTHER 4 WK AFTER AGENT TREATMENT, Promoter: NONE USED","7/15 (47%), 9/14 (64%), -36%, not calculated and 7/9 (78%), 6/9 (67%), 14%, not calculated"
same,"tumour outcome (control, treated, inhibition, significance)","Carcinogen: 7,12-DIMETHYLBENZ[A]ANTHRACENE, 57-97-6, Dose [Inhibitor]: 0.2% IN DRINKING WATER DAILY STARTING 4 WK BEFORE CARCINOGEN TREATMENT AND CONTINUING FOR DURATION OF THE STUDY (STUDY D, Species: MOUSE, Strain/Sex: 101/MALE, FEMALE, Target Tissue: Type of Lesion: SKIN: PAPILLOMA, Dose [Carcinogen]: 225 UG IN 0.15 ML ACETONE ONCE, Promoter: CROTON OIL, 8001-28-3","17/19 (89%), 17/19 (89%), 0%, not calculated"
same,"tumour outcome (control, treated, inhibition, significance)","Carcinogen: N-NITROSOBIS(2-OXOPROPYL)AMINE, 60599-38-4, Dose [Inhibitor]: 0, 0.2% IN DRINKING WATER FOR 49 WK BEGINNING POST CARCINOGEN TREATMENT (STUDY DURATION: 52 WK), Species: HAMSTER, Strain/Sex: SYRIAN/FEMALE, Target Tissue: Type of Lesion: PANCREAS: ADENOCARCINOMA, Dose [Carcinogen]: 10 MG/KG 1/WK FOR 3 WK, Promoter: NONE USED","18/30 (60%), 18/29 (62%), -3%, not significant"
same,"tumour outcome (control, treated, inhibition, significance)","Carcinogen: N-NITROSOBIS(2-OXOPROPYL)AMINE, 60599-38-4, Dose [Inhibitor]: 0, 0.2% IN DRINKING WATER FOR 49 WK POST CARCINOGEN TREATMENT (STUDY DURATION: 52 WK), Species: HAMSTER, Strain/Sex: SYRIAN GOLDEN/FEMALE, Target Tissue: Type of Lesion: KIDNEY: NEPHROBLASTOMA, Dose [Carcinogen]: 10 MG/KG BW 1/WK FOR FIRST 3 WK OF STUDY DURATION, Promoter: NONE","2/30 (7%), 0/29 (0%), 100%, not significant"
same,outcome,"Carcinogen: N-NITROSOBIS(2-OXOPROPYL)AMINE, 60599-38-4, Dose [Inhibitor]: 0, 0.2% IN DRINKING WATER FOR 49 WK POST CARCINOGEN TREATMENT (STUDY DURATION: 52 WK), Species: HAMSTER, Strain/Sex: SYRIAN GOLDEN/FEMALE, Target Tissue: Type of Lesion: KIDNEY: RENAL CELL ADENOMA, Dose [Carcinogen]: 10 MG/KG BW 1/WK FOR FIRST 3 WK OF STUDY DURATION, Promoter: NONE","0/30 (0%), 1/29 (3%),-%, not significant"
same,"tumour outcome (control, treated, inhibition, significance)","Carcinogen: N-NITROSOBIS(2-OXOPROPYL)AMINE, 60599-38-4, Dose [Inhibitor]: 0, 0.2% IN DRINKING WATER FOR 49 WK POST CARCINOGEN TREATMENT (STUDY DURATION: 52 WK), Species: HAMSTER, Strain/Sex: SYRIAN GOLDEN/FEMALE, Target Tissue: Type of Lesion: KIDNEY: RENAL CELL CARCINOMA, Dose [Carcinogen]: 10 MG/KG BW 1/WK FOR FIRST 3 WK OF STUDY DURATION, Promoter: NONE","1/30 (3%), 1/29 (3%), 0%, not significant"
same,"tumour outcome (control, treated, inhibition, significance)","Carcinogen: N-NITROSOBIS(2-OXOPROPYL)AMINE, 60599-38-4, Dose [Inhibitor]: 0, 0.2% IN DRINKING WATER FOR 49 WK POST CARCINOGEN TREATMENT (STUDY DURATION: 52 WK), Species: HAMSTER, Strain/Sex: SYRIAN GOLDEN/FEMALE, Target Tissue: Type of Lesion: LIVER: CHOLANGIOCELLULAR ADENOMA, Dose [Carcinogen]: 10 MG/KG BW 1/WK FOR FIRST 3 WK OF STUDY DURATION, Promoter: NONE","1/30 (3%), 2/29 (7%), -133%, not significant"
same,outcome,"Carcinogen: N-NITROSOBIS(2-OXOPROPYL)AMINE, 60599-38-4, Dose [Inhibitor]: 0, 0.2% IN DRINKING WATER FOR 49 WK POST CARCINOGEN TREATMENT (STUDY DURATION: 52 WK), Species: HAMSTER, Strain/Sex: SYRIAN GOLDEN/FEMALE, Target Tissue: Type of Lesion: LIVER: CHOLANGIOCELLULAR CARCINOMA, Dose [Carcinogen]: 10 MG/KG BW 1/WK FOR FIRST 3 WK OF STUDY DURATION, Promoter: NONE","0/30 (0%), 5/29 (17%), -%, p<0.05"
same,outcome,"Carcinogen: N-NITROSOBIS(2-OXOPROPYL)AMINE, 60599-38-4, Dose [Inhibitor]: 0, 0.2% IN DRINKING WATER FOR 49 WK POST CARCINOGEN TREATMENT (STUDY DURATION: 52 WK), Species: HAMSTER, Strain/Sex: SYRIAN GOLDEN/FEMALE, Target Tissue: Type of Lesion: LIVER: CYSTADENOMA, Dose [Carcinogen]: 10 MG/KG BW 1/WK FOR FIRST 3 WK OF STUDY DURATION, Promoter: NONE","0/30 (0%), 0/29 (0%), 0%, not significant"
same,"tumour outcome (control, treated, inhibition, significance)","Carcinogen: N-NITROSOBIS(2-OXOPROPYL)AMINE, 60599-38-4, Dose [Inhibitor]: 0, 0.2% IN DRINKING WATER FOR 49 WK POST CARCINOGEN TREATMENT (STUDY DURATION: 52 WK), Species: HAMSTER, Strain/Sex: SYRIAN GOLDEN/FEMALE, Target Tissue: Type of Lesion: LIVER: HEPATOCELLULAR ADENOMA, Dose [Carcinogen]: 10 MG/KG BW 1/WK FOR FIRST 3 WK OF STUDY DURATION, Promoter: NONE","2/30 (7%), 4/29 (14%), -100%, not significant"
same,"tumour outcome (control, treated, inhibition, significance)","Carcinogen: N-NITROSOBIS(2-OXOPROPYL)AMINE, 60599-38-4, Dose [Inhibitor]: 0, 0.2% IN DRINKING WATER FOR 49 WK POST CARCINOGEN TREATMENT (STUDY DURATION: 52 WK), Species: HAMSTER, Strain/Sex: SYRIAN GOLDEN/FEMALE, Target Tissue: Type of Lesion: LIVER: HEPATOCELLULAR CARCINOMA, Dose [Carcinogen]: 10 MG/KG BW 1/WK FOR FIRST 3 WK OF STUDY DURATION, Promoter: NONE","2/30 (7%), 1/29 (3%), 57%, not significant"
same,"tumour outcome (control, treated, inhibition, significance)","Carcinogen: N-NITROSOBIS(2-OXOPROPYL)AMINE, 60599-38-4, Dose [Inhibitor]: 0, 0.2% IN DRINKING WATER FOR 49 WK POST CARCINOGEN TREATMENT (STUDY DURATION: 52 WK), Species: HAMSTER, Strain/Sex: SYRIAN GOLDEN/FEMALE, Target Tissue: Type of Lesion: LUNG: ADENOCARCINOMA, Dose [Carcinogen]: 10 MG/KG BW 1/WK FOR FIRST 3 WK OF STUDY DURATION, Promoter: NONE","11/30 (37%), 8/29 (28%), 24%, not significant"
same,"tumour outcome (control, treated, inhibition, significance)","Carcinogen: N-NITROSOBIS(2-OXOPROPYL)AMINE, 60599-38-4, Dose [Inhibitor]: 0, 0.2% IN DRINKING WATER FOR 49 WK POST CARCINOGEN TREATMENT (STUDY DURATION: 52 WK), Species: HAMSTER, Strain/Sex: SYRIAN GOLDEN/FEMALE, Target Tissue: Type of Lesion: LUNG: ADENOMA, Dose [Carcinogen]: 10 MG/KG BW 1/WK FOR FIRST 3 WK OF STUDY DURATION, Promoter: NONE","15/30 (50%), 18/29 (62%), -24%, not significant"
same,"tumour outcome (control, treated, inhibition, significance)","Carcinogen: N-NITROSOBIS(2-OXOPROPYL)AMINE, 60599-38-4, Dose [Inhibitor]: 0, 0.2% IN DRINKING WATER FOR 49 WK POST CARCINOGEN TREATMENT (STUDY DURATION: 52 WK), Species: HAMSTER, Strain/Sex: SYRIAN GOLDEN/FEMALE, Target Tissue: Type of Lesion: LUNG: SQUAMOUS CELL CARCINOMA, Dose [Carcinogen]: 10 MG/KG BW 1/WK FOR FIRST 3 WK OF STUDY DURATION, Promoter: NONE","2/30 (7%), 0/29 (0%), 100%, not significant"
same,"tumour outcome (control, treated, inhibition, significance)","Carcinogen: N-NITROSOBIS(2-OXOPROPYL)AMINE, 60599-38-4, Dose [Inhibitor]: 0, 0.2% IN DRINKING WATER FOR 49 WK POST CARCINOGEN TREATMENT (STUDY DURATION: 52 WK), Species: HAMSTER, Strain/Sex: SYRIAN GOLDEN/FEMALE, Target Tissue: Type of Lesion: PANCREAS (DUCTAL): ADENOCARCINOMA, Dose [Carcinogen]: 10 MG/KG BW 1/WK FOR FIRST 3 WK OF STUDY DURATION, Promoter: NONE","18/30 (60%), 18/29 (62%), -3%, not significant"
same,"tumour outcome (control, treated, inhibition, significance)","Carcinogen: N-NITROSOBIS(2-OXOPROPYL)AMINE, 60599-38-4, Dose [Inhibitor]: 0, 0.2% IN DRINKING WATER FOR 49 WK POST CARCINOGEN TREATMENT (STUDY DURATION: 52 WK), Species: HAMSTER, Strain/Sex: SYRIAN GOLDEN/FEMALE, Target Tissue: Type of Lesion: THYROID: ADENOMA, Dose [Carcinogen]: 10 MG/KG BW 1/WK FOR FIRST 3 WK OF STUDY DURATION, Promoter: NONE","1/30 (3%), 0/29 (0%), 100%, not significant"
